This note sets out measurements from a melting point compilation (Tetko et al.; mined from patent text by program, amines drawn as free bases though some values may be those of a salt).

For orientation: melting point means the temperature of the solid-liquid transition.

SMILES strings stand for the structures. Where only a bound is given, the exact number is not on record here.

On to `N#Cc1c(N2CCN(C(=O)c3cccs3)CC2)c2cc(Cl)ccc2n(Cc2ccc(F)cc2)c1=O`, for which the melting point was 253 °C.

`Nc1cc(N2CCNCC2)ccc1[N+](=O)[O-]` showed a melting point of 159 to 160 °C. As to `CCOC(=O)c1c(O)n(C)c2cc(-c3ccncc3)ccc2c1=O`, the melting point turned out to be 184 °C.

Molecule `O=C(NCc1cccc(-c2nc(=O)c3ccccc3s2)n1)C(F)(F)F` displayed a melting point of 226 to 227 °C.

As for `CCOC(=O)c1ccc2c(c1)ncn2-c1cccc(COCc2ccccn2)c1`, the melting point fell in the range of 99.8 to 101 °C.

Take `O=C1NC(c2ccccc2)Oc2ccccc21` (centres undefined): the melting point lay in the range of 157 to 160 °C.

For the molecule `CCCCCCCCCCCCc1c([N+](=O)[O-])ncn1C`, the melting point was in the range of 56 to 59 °C. For `Nc1nc(N)c2c(n1)NCC(CCc1ccc(C(=O)N[C@@H](CCC(=O)O)C(=O)O)cc1)C2` (some centres undefined) the value was > 250 °C; for `COc1cccc2c1CC(N(CCCc1cn(C)c3ccc(F)cc13)CC1CC1)CO2` (centres undefined), 86 °C. Molecule `COC(=O)Cc1ccc(OCCNC(=O)OCc2ccccc2)c(F)c1` had a melting point of 44 to 45 °C. Turning to `Fc1ccc(-c2nc3ccc(OC(F)(F)F)cc3[nH]2)cc1`, the melting point was 158 to 160 °C. The value for `COC(=O)[C@@H]1CC(=O)N(c2ccc(O)cc2)C1` was 123 °C; that for `CC(C)(C)OC(=O)NC1CC1F` (centres undefined) was 58 to 60 °C.

As for `Oc1cc(C(O)(c2ccccc2)c2ccccc2)c2ccccc2n1`, the melting point was > 350 °C. For `CN(CCCNc1ncc(Cc2ccc(O)cc2)c(=O)[nH]1)c1ccccn1` the value was 109 to 111 °C; for `Cc1nn(-c2cc3nc(S)sc3cc2F)c(=O)n1C`, 299 to 301 °C. For `CCN1CCN(c2cccc3ccc(-c4cccc(NS(C)(=O)=O)c4)cc23)CC1`, the melting point is 100 to 101 °C. Take `COC(=O)Nc1ccccc1`: the melting point is 45 to 46 °C. Regarding `Cc1nc2cnccc2n1-c1ccc(COc2ccccc2C(=O)O)cc1`, the melting point was 217 to 219 °C.

`CC1C(=O)NCCN1C(=O)C(Cl)Cl` (centres undefined) showed a melting point of 167 to 168 °C.

As for `CC(C)N(C(=O)CC(c1ccccc1)c1cc(Br)ccc1OCc1ccccc1)C(C)C` (centres undefined), the melting point amounted to 102 °C. For `COc1cc2c(cc1OC)C(c1ccccc1N)=NN=C(C)C2` the value was 172 to 174 °C. Molecule `CCOc1nsc(N)c1C#N` yielded a melting point of 216 to 217 °C. Molecule `Cc1cc(S(=O)(=O)c2c[nH]c3ccc(F)cc23)ccc1C1CCN(C)C1` (centres undefined) yielded a melting point of 86.5 to 93.5 °C. Consider `COc1cc2cc(C(=O)N3CC(COS(C)(=O)=O)c4c3cc(N)c3ccccc43)[nH]c2c(OC)c1OC` (centres undefined), for which the melting point was > 260 °C.

Regarding `COc1cc(OC)cc(N2CCN(C(=O)[C@](C)(C#N)[C@H](c3ccccc3OC)c3cccc4ccccc34)CC2)c1`, the melting point fell in the range of 186 to 188 °C. The molecule `O=C1c2cc(O)ccc2OCC1Cc1cccnc1` (centres undefined) returned a melting point of 163 to 166 °C. For `COc1ccc(C2(O)c3ccccc3C(=O)N2CCc2cccc(OC)c2)cc1` (centres undefined), the melting point was 119 °C. For `CCOC(=O)c1c(S(=O)Cc2nccn2C)nc2cc(OC)c(OC)cc2c1-c1ccc(OC)c(OC)c1` (centres undefined) the value was 151 to 152 °C; for `CC(F)(F)c1cccc(C[C@H](N)[C@H](O)c2ccc(F)cc2)c1` (racemic), 101 to 102 °C; for `CCc1nc2c(cnn2CC)c(NC2CCOCC2)c1CNC(=O)c1cc(C)cc(C(=O)NCc2cccc(-c3cccc(CC4CCNCC4)c3)c2)c1`, 130 to 132 °C. For `CCCCCCC1CC(=O)C=C(N)C1` (centres undefined) the value was 113 °C. Regarding `Clc1ccc(Cn2cnc3c(Cl)ncnc32)cc1Cl`, the melting point is 130 to 133 °C. The value for `CCCCC[C@H]1CC[C@H](c2cnc(-c3ccc(C#N)cc3)nc2)CC1` was 100 °C; that for `COC(=O)C=C(NC1C=CC=CC1(F)NC(=CC(=O)OC)C(=O)OC)C(=O)OC` (centres undefined) was 170 to 174 °C; that for `COc1ccc(-c2[nH]nc3c2C(=O)c2c(NC(=O)Cc4ccc(Cl)cc4)cccc2-3)cc1` was 238 °C.

The molecule `COC(=O)c1c(-c2ccccc2)nn2c1-c1ccccc1CC2` had a melting point of 112 to 113 °C. As to `CCCCCCCCOC(=O)CCc1cc(C(C)(C)C)c2oc(-c3ccc(-c4nc5cc(CCC(=O)OCCCCCCCC)cc(C(C)(C)C)c5o4)s3)nc2c1`, the melting point was in the range of 68 to 70 °C. `COc1cc(C=C2COCC3=C2N=C2SCCN2C3c2cc(OC)c(OC)c(OC)c2)cc(OC)c1OC` (centres undefined): the melting point lay within 153 to 155 °C. For `CCCCCCCCCCCCCCCCN[C@H](C(=O)N[C@H](C(=O)O)C(C)C)C(C)C` the value was 120 to 123 °C; for `CN(CC1CCCCC1)C(=O)c1ccc2nonc2c1`, 71 to 72 °C; for `CC(=O)OC1C(Oc2cccc(O)c2C(=O)CCc2ccc3occc3c2)OC(CO)C(O)C1O` (centres undefined), 152 to 156 °C. For `CC(=O)c1c(C#N)nn(-c2c(Cl)cc(C(F)(F)F)cc2Cl)c1N` the value was 200 to 201 °C; for `NC(=O)c1cn(C(CO)CCc2ccccc2)cn1` (centres undefined), 127 to 130 °C. Regarding `Nc1nc(N)c2nc(N)n(COC(CO)CO)c2n1`, the melting point was in the range of 206 to 208 °C. The molecule `CN(c1ccccc1)c1nc(Cl)nc(Cl)n1` returned a melting point of 132 °C. Turning to `Cc1oc(-c2ccccc2)nc1CCOc1ccc(C=C2SC(=O)NC2=O)cc1`, the melting point lay in the range of 213 to 214 °C. As to `COC(=O)NCc1cccc(-c2ccccc2)c1`, the melting point is 49 to 52 °C. For `COC(=O)c1nc(Br)ccc1O` the value was 115 to 117 °C; for `CC(C)(C)C(=O)Oc1ccc(CCNC(=O)c2cccnc2)cc1`, 80 to 82 °C; for `Cc1cc2cc(CN3CCC(CCCC(=O)N4CCCCC4)CC3)cnc2cc1NC(=O)c1ccc(-c2ccc(F)cc2)cc1`, 179 °C. The molecule `CC(C)(C)C(=O)COc1ccc(Cl)cn1` gave a melting point of 68 to 69.5 °C. As to `CC(C)(C)C(=O)Nc1ccncc1-c1noc2ccccc12`, the melting point was 137 to 138 °C. The value for `CCCCCCCCCCCCCCOc1ccc(CCNC(=O)Cc2cccc(CBr)c2)cc1` was 75 to 77 °C; that for `Cn1c(=O)c(NS(C)(=O)=O)c(N2CCN(C(=O)c3cccs3)CC2)c2ccccc21` was 223 °C; that for `COc1cc(Cc2cnc(NCCSCc3csc(CN(C)C)n3)[nH]c2=O)ccn1` was 79 to 80 °C.

On to `CCCOc1ccc(F)cc1-c1ccc(C#N)c(=O)[nH]1`, for which the melting point lay in the range of 242 to 243 °C. The value for `COC(=O)CCc1nc(-c2ccc(O)cc2)c(-c2ccccc2)o1` was 115 to 116 °C. The value for `CC1CCC(=O)N1CC(=O)NCCN(C(C)C)C(C)C` (centres undefined) was 73 to 74 °C; that for `CC(C(=O)O)c1ccc(-c2ccccc2)c(O)c1` (centres undefined) was 112 to 119 °C.

Molecule `O=S1(=O)NCN(C2CC2)c2ccc(Br)cc21` came in with a melting point of 178 to 179 °C.

For the molecule `COc1cc(OCCOc2ccccc2)c2c(=O)[nH]c(-c3cc(C)nc(C)c3)nc2c1`, the melting point was in the range of 172 to 173 °C.

In the case of `CC(C)N(Cc1ccc(Br)cc1)C(=S)Nc1ccccc1`, the melting point amounted to 134 °C. As for `CCc1cc(NCc2nc3ccccc3s2)c(=O)[nH]c1C`, the melting point fell in the range of 209 to 210 °C. Regarding `O=C1CCC(N2Cc3c(OCc4ccc(CN5CCN(C(=O)C6CCCCC6)CC5)cc4)cccc3C2=O)C(=O)N1` (centres undefined), the melting point fell in the range of 215 to 217 °C. For `CCOC(=O)CCc1c(C)nc(CC)n(Cc2ccc(-c3ccccc3-c3nnn[nH]3)cc2)c1=O` the value was 76 to 80 °C. For `O=Cc1cccc(C=Cc2ccccc2)c1` the value was 90 °C; for `C=CCON(C)C(=O)c1nc(-c2ccc(Cl)c(OC)c2F)cc(N)c1Cl`, 134 to 136 °C. The value for `Cc1sc(N)c(C(=O)c2ccc(Br)s2)c1C` was 128 to 130 °C; that for `COc1ccc(OC(C)c2ccnc3ncnn23)cc1` (centres undefined) was 112 to 114 °C.

As for `O=C(NC(=O)c1c(F)cccc1F)Nc1cc(Cl)c(OC(F)(F)C(F)Cl)c(Cl)c1` (centres undefined), the melting point fell in the range of 178 to 180 °C.

Consider `Cc1noc(NS(=O)(=O)c2ccsc2C(=O)Oc2ccc3c(c2)OCO3)c1Cl`, for which the melting point lay in the range of 189 to 191 °C.

Take `Fc1cccc2c(Nc3ccncc3)noc12`: the melting point lay in the range of 234 to 236 °C. Molecule `Nc1nc(-n2cc(C(=O)O)c(=O)c3cc(F)c(F)c(Cl)c32)c(F)cc1Cl` yielded a melting point of 280 °C. `CCCCC(CC)COc1cc2c3c(cccc3c1Br)C(=O)c1ccccc1-2` (centres undefined) registered a melting point of 85 to 88 °C. For `O=C1OCCC=C1c1ccc(F)c(F)c1` the value was 72 to 78 °C. For `Oc1ccccc1-c1cc(-c2ccc(F)c(F)c2)cc(-c2ccc3ccccc3c2)n1` the value was 165 to 167 °C; for `CCCOC(=Nc1sccc1C#N)OCCC`, 65 to 67 °C. `CCNC(=O)n1nc(Oc2ccc([N+](=O)[O-])c(OCC)c2)cc1C`: the melting point lay in the range of 110 to 112 °C. The value for `Nc1ncc(-c2cnc3ccc(-c4ccc(OCC5(CNC(=O)C6CC6)COC5)cc4)nn23)cc1C(F)(F)F` was 223 to 225 °C. `Cc1ccc(C(=O)CCCOC(=O)Nc2ccccc2)cc1` gave a melting point of 106 to 109 °C.

The molecule `Cc1c(Nc2c(C#N)cncc2-c2cc3cc(CN4CCN(C)CC4)ccc3o2)ccc2[nH]ccc12` registered a melting point of 162 to 165 °C.

Molecule `Cc1cc(N2C(=O)N(CCCCCCCCCSCCCC(F)(F)C(F)(F)F)C(C)(C)C2=O)ccc1NS(=O)(=O)NC(=O)OC(C)(C)C` had a melting point of 122 to 124 °C. For `CCCCCCCCNC(=O)N1CCC(Nc2ccc(CCNC[C@H](O)COc3ccc(F)cc3)cc2)CC1` the value was 58 to 64 °C.

In turn, `COC(=O)NNC(=O)C=Cc1ccccc1` displayed a melting point of 165 °C. For `COc1ccc(C[C@H](NC(=O)OCc2ccccc2)C(=O)O)cc1` the value was 106 to 108 °C; for `O=C(O)c1ccc(Cl)cc1Nc1cccc(Br)c1`, 205 to 207 °C. Consider `O=c1[nH]nc(-c2ccccc2[N+](=O)[O-])o1`, for which the melting point was in the range of 157 to 158 °C. Consider `CC(=O)c1c(C)oc(-c2ccncc2)c1C`, for which the melting point is 65 to 66.5 °C.
